What was measured:
Assay in all cases: drug sensitivity score (DSS) (DSS (dimensionless)); higher = more sensitive (stronger drug response)
FIMM-PDC5 = patient-derived ovarian cancer cells; conditions: genetic perturbation: none (patient-derived cell culture)
Procedure, shortened: (§1)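 Drugs were pre-plated in 384-well plates at five concentrations covering a 10,000-fold range, and 1 000 – 1 500 cells per well were added from patient-derived cultures or from ovarian cancer cell lines whose shRNA had been induced with 100 ng/ml doxycycline for three days or longer. Incubation lasted three days at 37 °C under 5.0 % CO2. A PHERAstar FS then recorded CellTiter-Glo luminescence as the readout of viability. A drug sensitivity score, calculated as described before, summarised the dose-response curve of every drug.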

FIMM-PDC4 = patient-derived ovarian cancer cells; conditions: genetic perturbation: none (patient-derived cell culture)
Procedure, shortened: as §1

FIMM-PDC6 = patient-derived ovarian cancer cells; conditions: genetic perturbation: none (patient-derived cell culture)
Procedure, shortened: as §1

FIMM-PDC7 = patient-derived ovarian cancer cells; conditions: genetic perturbation: none (patient-derived cell culture)
Procedure, shortened: as §1

JHOS2 = tested on: JHOS2
Procedure, shortened: as §1

FIMM-PDC1 = patient-derived ovarian cancer cells; conditions: genetic perturbation: none (patient-derived cell culture)
Procedure, shortened: as §1

FIMM-PDC3 = patient-derived ovarian cancer cells; conditions: genetic perturbation: none (patient-derived cell culture)
Procedure, shortened: as §1

OVSAHO = tested on: OVSAHO
Procedure, shortened: as §1

Kuramochi = tested on: Kuramochi
Procedure, shortened: as §1

[1] = genetic perturbation: DOX-induced PTK7 shRNA knockdown
[2] = genetic perturbation: DOX-induced control shRNA

SMILES | drug sensitivity score (FIMM-PDC5) | drug sensitivity score (FIMM-PDC4) | drug sensitivity score (FIMM-PDC6) | drug sensitivity score (FIMM-PDC7) | drug sensitivity score (JHOS2; [1]) | drug sensitivity score (JHOS2; [2]) | drug sensitivity score (FIMM-PDC1) | drug sensitivity score (FIMM-PDC3) | drug sensitivity score (OVSAHO; [1]) | drug sensitivity score (OVSAHO; [2]) | drug sensitivity score (Kuramochi; [1]) | drug sensitivity score (Kuramochi; [2])
CO[C@H](C(=O)[C@@H](O)[C@@H](C)O)[C@@H]1Cc2cc3cc(O[C@H]4C[C@@H](O[C@@H]5C[C@@H](O)[C@H](O)[C@@H](C)O5)[C@H](O)[C@@H](C)O4)c(C)c(O)c3c(O)c2C(=O)[C@H]1O[C@H]1C[C@@H](O[C@@H]2C[C@@H](O)[C@@H](O[C@@H]3C[C@](C)(O)[C@H](O)[C@@H](C)O3)[C@@H](C)O2)[C@H](O)[C@@H](C)O1 [Plicamycin] | 15.3 | 12.6 | < 0 | < 0 | 3.7 | 20.1 | 15.6 | 4.3 | 3.5 | 14.6 | 3.45 | 12.6
CNC(=O)c1ccccc1Nc1nc(Nc2ccc3c(c2OC)CCC[C@H](N2CCN(CCO)CC2)C3)ncc1Cl | 10.2 | 9.6 | 5.3 | 5.5 | 7.1 | 5.6 | 7.5 | 6.9 | 12.4 | 7.5 | 7.7 | 6.3
C#Cc1cccc(Nc2ncnc3cc(OCCOC)c(OCCOC)cc23)c1 [Erlotinib] | 17.2 | 12 | 12.1 | 10 | 1.2 | 3.5 | 3.3 | 11.3 | 15.1 | 2.4 | 1.5 | 3
Cc1ccc(C(=O)Nc2ccc(CN3CCN(C)CC3)c(C(F)(F)F)c2)cc1C#Cc1cnc2cccnn12 [Ponatinib] |  |  |  |  | 4.7 | 6.9 |  |  | 10.2 | 8.3 | 7.8 | 8
O=C(Nc1cccc(Nc2ncc(Br)c(NCCc3cnc[nH]3)n2)c1)N1CCCC1 [BX-912] | 6.9 | 3.9 | 2.2 | 9.2 | 5.5 | 2.4 | 2.85 | 1.2 | 3.8 | 2.2 | 2.35 | 3.7
C[C@@]1(C(=O)Nc2ccc(F)nc2)CCCN1c1nc(Nc2cc(C3CC3)n[nH]2)c2cccn2n1 | 14.1 | 11.5 | 4.1 | 16.6 | 6 | 4.4 | 13.8 | 10.8 | 7.2 | 8.9 | 5.25 | 5
CC(=O)c1cc2c(o1)C(=O)c1ccccc1C2=O [Napabucasin] | 13.4 | 15.3 | 14.4 | 17.2 | 22 | 19.2 | 10.8 | 21.8 | 18.9 | 16.1 | 16.7 | 17.3
O=C(c1ccc(F)c(F)c1Nc1ccc(I)cc1F)N1CC(O)([C@@H]2CCCCN2)C1 [Cobimetinib] | 12.7 | 12.4 | 12 | 7.4 | 0.8 | 11.1 | < 0 | 4.8 | 9 | 3.9 | 6.05 | 2.8
N.N.[Cl][Pt][Cl] [Cisplatin] | 5.4 | 5.7 | 9.8 | 4.7 | 14.9 | 4.1 | 4.8 | 18.9 | 17.6 | 5.1 | 14.2 | 7
CC(C)(C)C[C@@H]1N[C@@H](C(=O)N[C@H]2CC[C@H](O)CC2)[C@H](c2cccc(Cl)c2F)[C@]12C(=O)Nc1cc(Cl)ccc12 | 15.8 | 8.1 | 10.5 | 5 | 4.8 | 0.1 | < 0 | 4.9 | 2.7 | 1.2 | 1.9 | 0.8
S=c1[nH]cnc2nc[nH]c12 [Mercaptopurine] | 2 | < 0 | < 0 | < 0 | 0.1 | < 0 | 3.75 | < 0 | 0.9 | 7.3 | 6.45 | 6.8
Nc1nc2[nH]cnc2c(=S)[nH]1 [Thioguanine] | 6.4 | 6.6 | 2.9 | 4.7 | 1.9 | 1 | 5.75 | < 0 | 4.9 | 8.1 | 9.75 | 7
Oc1nc(-c2ccc(C(F)(F)F)cc2)nc2c1CSCC2 [XAV-939] | 6.3 | 1.6 | 4.1 | 10.8 | < 0 | 0.7 | 1.1 | 1.5 | 2.1 | 3 | 0.35 | 0.1
O=C(Nc1c[nH]nc1-c1nc2ccc(CN3CCOCC3)cc2[nH]1)NC1CC1 [AT9283] | 6.1 | 8.2 | 3.1 | < 0 | 7.3 | 4.8 | 2.9 | 4.4 | 6.9 | 3.1 | 5.7 | 3.2
O=C(NC1CCNCC1)c1n[nH]cc1NC(=O)c1c(Cl)cccc1Cl [AT7519] | 20.5 | 16.3 | 20.5 | 18.2 | 14 | 14 | 14.1 | 13.6 | 17.2 | 14.5 | 15 | 7.7
Cc1[nH]c2ccccc2c1CCNCc1ccc(/C=C/C(=O)NO)cc1 [Panobinostat] | 15 | 8.1 | 12.4 | 8.2 | 13 | 13.6 | 11 | 13.7 | 13.5 | 11.2 | 19 | 7.2
Nc1ccccc1NC(=O)c1ccc(CNc2nccc(-c3cccnc3)n2)cc1 [Mocetinostat] | 12.3 | 7.1 | 8.7 | 7.5 | 8 | 3.4 | 6.35 | 9.7 | 10 | 3.8 | 9.95 | 4.1

SMILES | drug sensitivity score (FIMM-PDC5) | drug sensitivity score (FIMM-PDC4) | drug sensitivity score (FIMM-PDC6) | drug sensitivity score (FIMM-PDC7) | drug sensitivity score (JHOS2; [1]) | drug sensitivity score (JHOS2; [2]) | drug sensitivity score (FIMM-PDC1) | drug sensitivity score (FIMM-PDC3) | drug sensitivity score (OVSAHO; [1]) | drug sensitivity score (OVSAHO; [2]) | drug sensitivity score (Kuramochi; [1]) | drug sensitivity score (Kuramochi; [2])
C=C1C[C@@H]2CC[C@@]34C[C@H]5O[C@H]6[C@@H](O3)[C@H]3O[C@H](CC[C@@H]3O[C@H]6[C@H]5O4)CC(=O)C[C@@H]3[C@@H](OC)[C@@H](C[C@H](O)CN)O[C@H]3C[C@H]3O[C@@H](CC[C@@H]1O2)C[C@@H](C)C3=C [Eribulin] | 25.5 | 21.1 | 12.3 | 12.2 | 19 | 11.7 | 15.9 | 20.7 | 18.6 | 15.3 | 18.6 | 5.7
O=C1c2c(O)ccc(O)c2C(=O)c2c(NCCNCCO)ccc(NCCNCCO)c21 [Mitoxantrone] | 6.6 | 5.1 | 4.8 | 3.4 | 5.5 | 7.6 | 4.55 | 6.9 | 5.1 | 3.8 | 2.7 | 2.7
COc1ccc2[nH]cc(/C=C3\C(=O)Nc4ccc(NC(=O)CCN5CCCCC5)cc43)c2c1 | 14.3 | 9.7 | 5.8 | 6.7 | 7.8 | 8 | 6.15 | 11 | 7.4 | 7.5 | 7.75 | 5.2
CC/C(=C(\c1ccc(O)cc1)c1ccc(OCCN(C)C)cc1)c1ccccc1 [4-hydroxytamoxifen] | 6 | 6 | 3 | 4.6 | 8.4 | 2.3 | 3.6 | 6 | 4.9 | 3.2 | 5.1 | 2.4
CC(=O)O[C@H]1C(=O)[C@@]2(C)[C@H]([C@H](OC(=O)c3ccccc3)[C@]3(O)C[C@H](OC(=O)[C@H](O)[C@@H](NC(=O)c4ccccc4)c4ccccc4)C(C)=C1C3(C)C)[C@]1(OC(C)=O)CO[C@@H]1C[C@@H]2O [Paclitaxel] | 20.8 | 18.7 | 10.5 | 7 | 17.3 | 11.7 | 15.9 | 18.4 | 11.1 | 15.6 | 18.1 | 3.1
COc1cc(N2CCC(N3CCN(C)CC3)CC2)ccc1Nc1ncnc(Nc2ccccc2S(=O)(=O)C(C)C)n1 [ASP3026] | 7.7 | 8.1 | 5.3 | 3.4 | 5.7 | 5.1 | 3.85 | 5.5 | 5.3 | 4.5 | 4.5 | 3.2
CCCCc1nc2cc(/C=C/C(=O)NO)ccc2n1CCN(CC)CC [Pracinostat] | 14.8 | 7.3 | 13.7 | 11.1 | 13.4 | 11.9 | 10.8 | 13.2 | 14.2 | 11.2 | 18 | 7.9
Cc1sc2c(c1C)C(c1ccc(Cl)cc1)=N[C@@H](CC(=O)Nc1ccc(O)cc1)c1nnc(C)n1-2 [Birabresib] | 12.7 | 5.6 | 3.7 | 8.3 | 9.6 | 8.1 | 4.2 | 4.3 | 7.3 | 13.4 | 13.9 | 4.8
COc1c(C)cnc(Cn2cnc3c(Cl)nc(N)nc32)c1C [BIIB021] | 18 | 18.8 | 13.5 | 14.6 | 16.5 | 12.6 | 12.8 | 12.1 | < 0 | 8.1 | 10.4 | 0.9
CO[C@@H](C(=O)N1Cc2[nH]nc(NC(=O)c3ccc(N4CCN(C)CC4)cc3)c2C1)c1ccccc1 [Danusertib] | 9.6 | 11.6 | 9.4 | 1.8 | 6.6 | 5.5 | 7.7 | 9.9 | 17.5 | 7.5 | 10.4 | 13
CC(C)(C)c1cnc(CSc2cnc(NC(=O)C3CCNCC3)s2)o1 [SNS-032] | 24.7 | 20 | 19.2 | 19.1 | 19.9 | 16.9 | 18.6 | 16.9 | 17.5 | 15.9 | 16.9 | 17.2
CNC(=O)c1ccccc1Nc1cc(Nc2ccc(N3CCOCC3)cc2OC)ncc1C(F)(F)F [VS-4718] | 8 | 9.2 | 10.3 | 5.4 | 5.9 | 3.7 | 5.4 | 3.8 | 5.7 | 9.9 | 10.8 | 4.8
CN(CC(=O)N(Cc1ccc(C2CCCCC2)cc1)c1ccc(C(=O)O)cc1)S(=O)(=O)c1c(F)c(F)c(F)c(F)c1F [SH-4-54] | 5.1 | 7 | 7.6 | 9.2 | 4.6 | 3.7 | 4 | 6 | 5.2 | 5.4 | 6.1 | 4.7
CCN(CC)CCCC(C)Nc1ccnc2cc(Cl)ccc12 (centres undefined) [Chloroquine] | 9 | 9.1 | 5.8 | 7.7 | 8.4 | 7.8 | 7.6 | 8.8 | 8.6 | 5.8 |  | 
CC[C@]1(O)C[C@H]2CN(CCc3c([nH]c4ccccc34)[C@@](C(=O)OC)(c3cc4c(cc3OC)N(C=O)[C@H]3[C@@](O)(C(=O)OC)[C@H](OC(C)=O)[C@]5(CC)C=CCN6CC[C@]43[C@@H]65)C2)C1 [Vincristine] | 6.4 | 8.9 | 0.5 | 5 |  |  | 14.9 | 13.8 | 3.4 | 9.1 | 4.75 | 2.7
Nc1ccn([C@@H]2O[C@H](CO)[C@@H](O)[C@@H]2O)c(=O)n1 [Cytarabine] | 10.5 | 3.6 | 6 | 5.7 | 13.4 | 7.2 | < 0 | 2.1 | 4.1 | < 0 |  | 

Source: the supplement of paper PMC9386025
